Patent US11180462B2, “Microbiocidal oxadiazole derivatives” (SYNGENTA PARTICIPATIONS AG, priority 2015, dated 2021)

Assays:
[1] = test system: Puccinia recondita f. Sp. Tritici; assay: Fungicidal activity against Puccinia recondita f. sp. tritici / wheat / leaf disc preventative (brown rust); assay type: in vivo; settings: foliar, 200 ppm in the applied formulation, wheat leaf segments, preventative, compared to untreated control leaf disks, read-out: disease control
Method in brief: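 200 ppm spray on wheat cv. Kanzler leaf segments; spore inoculation +1 day; 19° C., 75% rh, 12 h/12 h light cycle; single rating of % control vs untreated at 7 to 9 days.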

[2] = test system: Puccinia recondita f. Sp. Tritici; assay: Fungicidal activity against Puccinia recondita f. sp. tritici / wheat / leaf disc curative (brown rust); assay type: in vivo; settings: foliar, 24 h, 200 ppm in the applied formulation, wheat leaf segments, curative (applied 1 day after inoculation), compared to untreated control leaf disks, read-out: disease control
Description: Leaf disks or leaf segments of various plant species are cut from plants grown in a greenhouse. The cut leaf disks or segments are placed in multiwell plates (24-well format) onto water agar. The leaf disks are sprayed with a test solution before (preventative) or after (curative) inoculation. Compounds to be tested are prepared as DMSO solutions (max. 10 mg/ml) which are diluted to the appropriate concentration with 0.025% Tween20 just before spraying. The inoculated leaf disks or segments are incubated under defined conditions (temperature, relative humidity, light, etc.) according to the respective test system. A single evaluation of disease level is carried out 3 to 14 days after inoculation, depending on the pathosystem. Percent disease control relative to the untreated check leaf disks or segments is then calculated.
Fungicidal Activity Against Puccinia recondita f. Sp. Tritici/Wheat/Leaf Disc Curative (Brown Rust)
Wheat leaf segments cv. Kanzler are placed on agar in multiwell plates (24-well format). The leaf segments are then inoculated with a spore suspension of the fungus. Plates were stored in darkness at 19° C. and 75% relative humidity. The formulated test compound diluted in water was applied 1 day after inoculation. The leaf segments were incubated at 19° C. and 75% relative humidity under a light regime of 12 hours light/12 hours darkness in a climate cabinet and the activity of a compound was assessed as percent disease control compared to untreated when an appropriate level of disease damage appears in untreated check leaf segments (6 to 8 days after application).
The following compounds at 200 ppm in the applied formulation give at least 80% disease control in this test when compared to untreated control leaf disks under the same conditions, which show extensive disease development.

[3] = test system: Glomerella lagenarium (Colletotrichum lagenarium); assay: Fungicidal activity against Glomerella lagenarium (Colletotrichum lagenarium) liquid culture / cucumber / preventative (anthracnose); assay type: cell-based; settings: Colletotrichum orbiculare; 20 ppm in the applied formulation; liquid culture (PDB), growth inhibition measured photometrically after 3 to 4 days; compared to untreated control; read-out: disease control
Method in brief: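 Percent activity against the untreated check was derived from photometric growth measurements made 2 to 7 days after conidia in potato dextrose broth were combined with compound at 20 ppm. Cultures were kept dark at 24 °C and 96% humidity.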

C#CCN(Cc1ccc(-c2noc(C(F)(F)F)n2)cc1)C(=O)C1(C(F)(F)F)CCC1 [Compound 1.161, N-prop-2-ynyl-1-(trifluoromethyl)-N-[[4-[5-(trifluoromethyl)-1,2,4-oxadiazol-3-yl]phenyl]methyl]-cyclobutane-carboxamide]
≥ 80%: pest or weed control at 200 ppm [1] | pest or weed control at 200 ppm [2] | inhibition of growth at 20 ppm [3]

CCN(C(=O)N(C)Cc1ccc(-c2noc(C(F)(F)F)n2)cc1)C1CC1 [Compound 3.71, 1-cyclopropyl-1-ethyl-3-methyl-3-[[4-[5-(trifluoromethyl)-1,2,4-oxadiazol-3-yl]phenyl]methyl]urea]
≥ 80%: pest or weed control at 200 ppm [1] | pest or weed control at 200 ppm [2] | inhibition of growth at 20 ppm [3]

COCCN(Cc1ccc(-c2noc(C(F)(F)F)n2)cc1)C(=O)COC [Compound 1.328, 2-methoxy-N-(2-methoxyethyl)-N-[[4-[5-(trifluoromethyl)-1,2,4-oxadiazol-3-yl]phenyl]methyl]-acetamide]
≥ 80%: pest or weed control at 200 ppm [1] | pest or weed control at 200 ppm [2] | inhibition of growth at 20 ppm [3]

C#CCN(C(=O)N(CC)Cc1ccc(-c2noc(C(F)(F)F)n2)cc1)C1CC1 [Compound 3.99, 1-cyclopropyl-3-ethyl-1-prop-2-ynyl-3-[[4-[5-(trifluoromethyl)-1,2,4-oxadiazol-3-yl]phenyl]methyl]urea]
≥ 80%: pest or weed control at 200 ppm [1] | pest or weed control at 200 ppm [2] | inhibition of growth at 20 ppm [3]

CN(Cc1ccc(-c2noc(C(F)(F)F)n2)cc1)C(=O)N(C)C1CCC1 [Compound 3.82, 1-cyclobutyl-1,3-dimethyl-3-[[4-[5-(trifluoromethyl)-1,2,4-oxadiazol-3-yl]phenyl]methyl]urea]
≥ 80%: pest or weed control at 200 ppm [1] | pest or weed control at 200 ppm [2] | inhibition of growth at 20 ppm [3]

CON(Cc1ccc(-c2noc(C(F)(F)F)n2)cc1)C(=O)N(C)C1CCC1 [Compound 3.65, 1-cyclobutyl-3-methoxy-1-methyl-3-[[4-[5-(trifluoromethyl)-1,2,4-oxadiazol-3-yl]phenyl]methyl]urea]
≥ 80%: pest or weed control at 200 ppm [1] | pest or weed control at 200 ppm [2] | inhibition of growth at 20 ppm [3]

CC#CC(=O)N(CCOC)Cc1ccc(-c2noc(C(F)(F)F)n2)cc1 [Compound 1.323, N-(2-methoxyethyl)-N-[[4-[5-(trifluoromethyl)-1,2,4-oxadiazol-3-yl]phenyl]methyl]but-2-yaamide]
≥ 80%: pest or weed control at 200 ppm [1] | pest or weed control at 200 ppm [2] | inhibition of growth at 20 ppm [3]

CCN(Cc1ccc(-c2noc(C(F)(F)F)n2)cc1)C(=O)N(C)C(C)C [Compound 3.98, 1-ethyl-3-isopropyl-3-methyl-1-[[4-[5-(trifluoromethyl)-1,2,4-oxadiazol-3-yl]phenyl]methyl]urea]
≥ 80%: pest or weed control at 200 ppm [1] | pest or weed control at 200 ppm [2] | inhibition of growth at 20 ppm [3]

O=C(c1cccc2nnsc12)N(Cc1ccc(-c2noc(C(F)(F)F)n2)cc1)C1CC1 [Compound 1.139, N-cyclopropyl-N-[[4-[5-(trifluoromethyl)-1,2,4-oxadiazol-3-yl]phenyl]methyl]-1,2,3-benzothiadiazole-7-carboxamide]
≥ 80%: pest or weed control at 200 ppm [1] | pest or weed control at 200 ppm [2] | inhibition of growth at 20 ppm [3]

COCCC(=O)N(CCO)Cc1ccc(-c2noc(C(F)(F)F)n2)cc1 [Compound 1.713, N-(2-hydroxyethyl)-3-methoxy-N-[[4-[5-(trifluoromethyl)-1,2,4-oxadiazol-3-yl]phenyl]methyl]-propanamide]
≥ 80%: pest or weed control at 200 ppm [1] | pest or weed control at 200 ppm [2] | inhibition of growth at 20 ppm [3]

C#CCN(Cc1ccc(-c2noc(C(F)(F)F)n2)cc1)C(=O)CCCCC [Compound 1.162, N-prop-2-ynyl-N-[[4-[5-(trifluoromethyl)-1,2,4-oxadiazol-3-yl]phenyl]methyl]-hexanamide]
≥ 80%: pest or weed control at 200 ppm [1] | pest or weed control at 200 ppm [2] | inhibition of growth at 20 ppm [3]

CCC(C)N(Cc1ccc(-c2noc(C(F)(F)F)n2)cc1)C(=O)C1CCCN1C(C)=O (stereo not drawn) [Compound 1.400, 1-acetyl-N-sec-butyl-N-[[4-[5-(trifluoromethyl)-1,2,4-oxadiazol-3-yl]phenyl]methyl]-pyrrolidine-2-carboxamide]
≥ 80%: pest or weed control at 200 ppm [1] | pest or weed control at 200 ppm [2] | inhibition of growth at 20 ppm [3]

CCOC(=O)N(Cc1ccc(-c2noc(C(F)(F)F)n2)cc1)OC [Compound 2.1, ethyl N-methoxy-N-[[4-[5-(trifluoromethyl)-1,2,4-oxadiazol-3-yl]phenyl]methyl]-carbamate]
≥ 80%: pest or weed control at 200 ppm [1] | pest or weed control at 200 ppm [2] | inhibition of growth at 20 ppm [3]

COC(=O)N(Cc1ccc(-c2noc(C(F)(F)F)n2)cc1)CC(F)(F)F [Compound 2.22, methyl N-(2,2,2-trifluoroethyl)-N-[[4-[5-(trifluoromethyl)-1,2,4-oxadiazol-3-yl]phenyl]methyl]-carbamate]
≥ 80%: pest or weed control at 200 ppm [1] | pest or weed control at 200 ppm [2] | inhibition of growth at 20 ppm [3]

CCC(C)N(Cc1ccc(-c2noc(C(F)(F)F)n2)cc1)C(=O)C1CSC1 (stereo not drawn) [Compound 1.378, N-sec-butyl-N-[[4-[5-(trifluoromethyl)-1,2,4-oxadiazol-3-yl]phenyl]methyl]-thietane-3-carboxamide]
≥ 80%: pest or weed control at 200 ppm [1] | pest or weed control at 200 ppm [2] | inhibition of growth at 20 ppm [3]

COCCN(Cc1ccc(-c2noc(C(F)(F)F)n2)cc1)C(=O)C1=CCCC1 [Compound 1.333, N-(2-methoxyethyl)-N-[[4-[5-(trifluoromethyl)-1,2,4-oxadiazol-3-yl]phenyl]methyl]-cyclopentene-1-carboxamide]
≥ 80%: pest or weed control at 200 ppm [1] | pest or weed control at 200 ppm [2] | inhibition of growth at 20 ppm [3]

C#CCOc1ccc(C(=O)N(Cc2ccc(-c3noc(C(F)(F)F)n3)cc2)C2CC2)cc1F [Compound 1.129, N-cyclopropyl-3-fluoro-4-prop-2-ynoxy-N-[[4-[5-(trifluoromethyl)-1,2,4-oxadiazol-3-yl]phenyl]methyl]-benzamide]
≥ 80%: pest or weed control at 200 ppm [1] | pest or weed control at 200 ppm [2] | inhibition of growth at 20 ppm [3]

O=C(C1OCCO1)N(Cc1ccc(-c2noc(C(F)(F)F)n2)cc1)CC1CCCO1 (stereo not drawn) [Compound 1.447, N-(tetrahydrofuran-2-ylmethyl)-N-[[4-[5-(trifluoromethyl)-1,2,4-oxadiazol-3-yl]phenyl]methyl]-1,3-dioxolane-2-carboxamide]
≥ 80%: pest or weed control at 200 ppm [1] | pest or weed control at 200 ppm [2] | inhibition of growth at 20 ppm [3]

COCCOCC(=O)N(OC)C(C)c1ccc(-c2noc(C(F)(F)F)n2)cc1 (stereo not drawn) [Compound 1.266, N-methoxy-2-(2-methoxyethoxy)-N-[1-[4-[5-(trifluoromethyl)-1,2,4-oxadiazol-3-yl]phenyl]ethyl]-acetamide]
≥ 80%: pest or weed control at 200 ppm [1] | pest or weed control at 200 ppm [2] | inhibition of growth at 20 ppm [3]

CCC(C)N(Cc1ccc(-c2noc(C(F)(F)F)n2)cc1)C(=O)C1CC1 (stereo not drawn) [Compound 1.406, N-sec-butyl-N-[[4-[5-(trifluoromethyl)-1,2,4-oxadiazol-3-yl]phenyl]methyl]-cyclopropane-carboxamide]
≥ 80%: pest or weed control at 200 ppm [1] | pest or weed control at 200 ppm [2] | inhibition of growth at 20 ppm [3]

CON(Cc1ccc(-c2noc(C(F)(F)F)n2)cc1)C(=O)COC(F)F [Compound 1.785, 2-(difuoromethoxy)-N-methoxy-N-[[4-[5-(trifluoromethyl)-1,2,4-oxadiazol-3-yl]phenyl]methyl]-acetamide]
≥ 80%: pest or weed control at 200 ppm [1] | pest or weed control at 200 ppm [2] | inhibition of growth at 20 ppm [3]
